# Counter-ions that a name gives are not always drawn.
# How the values were obtained:
# hα2C receptor = biological target: T1, hα2C receptor (Homo sapiens, UniProt P18825); assay: Radioligand binding experiment for α2C-adrenoceptor ([3H]raulwolscine, CHO cell membranes); settings: [3H]raulwolscine binding, read-out: h-α2C pIC50 (converted)
# T1 construct: expressed in transfected cells; host or cells: CHO cells, stably transfected; membrane preparation
# T1 sequence (P18825 1-462): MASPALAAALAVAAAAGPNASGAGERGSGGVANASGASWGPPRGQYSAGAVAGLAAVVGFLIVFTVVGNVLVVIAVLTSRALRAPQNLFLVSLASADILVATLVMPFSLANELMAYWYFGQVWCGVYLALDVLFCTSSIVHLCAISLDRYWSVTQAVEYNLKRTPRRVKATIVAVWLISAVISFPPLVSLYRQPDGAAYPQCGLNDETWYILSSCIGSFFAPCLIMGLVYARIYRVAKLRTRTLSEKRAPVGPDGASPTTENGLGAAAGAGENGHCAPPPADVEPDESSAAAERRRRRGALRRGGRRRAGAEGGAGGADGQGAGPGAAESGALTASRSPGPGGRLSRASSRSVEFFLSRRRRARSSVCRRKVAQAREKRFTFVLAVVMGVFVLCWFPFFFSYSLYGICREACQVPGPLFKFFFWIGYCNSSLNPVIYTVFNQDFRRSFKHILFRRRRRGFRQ
# hα2A receptor = biological target: T2, hα2A receptor (Homo sapiens, UniProt P08913); assay: Radioligand binding experiment for α2A-adrenoceptor ([3H]raulwolscine, CHO cell membranes); settings: [3H]raulwolscine binding, read-out: h-α2A pIC50 (converted)
# T2 construct: expressed in transfected cells; host or cells: CHO cells, stably transfected; membrane preparation
# T2 sequence (P08913 1-465): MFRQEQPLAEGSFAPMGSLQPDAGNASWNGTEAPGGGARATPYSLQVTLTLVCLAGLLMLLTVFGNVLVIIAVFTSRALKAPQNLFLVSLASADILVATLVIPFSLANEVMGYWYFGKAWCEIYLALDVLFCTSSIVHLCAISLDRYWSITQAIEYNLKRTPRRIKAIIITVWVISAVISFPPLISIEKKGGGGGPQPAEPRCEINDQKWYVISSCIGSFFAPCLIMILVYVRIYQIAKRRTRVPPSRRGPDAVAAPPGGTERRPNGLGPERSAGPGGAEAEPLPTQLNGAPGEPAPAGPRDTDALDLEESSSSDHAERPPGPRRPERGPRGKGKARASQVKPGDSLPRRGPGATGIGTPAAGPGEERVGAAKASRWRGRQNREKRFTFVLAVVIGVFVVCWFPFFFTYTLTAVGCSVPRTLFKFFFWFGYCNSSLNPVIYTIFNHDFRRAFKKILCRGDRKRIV
# 5HT-Transporter = biological target: T3, 5HT-Transporter (Homo sapiens, UniProt P31645); assay: Binding experiment for the 5HT-transporter ([3H]paroxetine, human platelet membranes); settings: [3H]paroxetine 0.5 nM, read-out: h-5HTT pIC50 (converted)
# T3 construct: Human platelet membranes (Oceanix Biosciences Corporation, Hanover, Md., USA) were thawed; tissue Oceanix Biosciences Corporation, Hanover, Md., USA; host or cells: human platelet membranes
# T3 sequence (P31645 whole entry): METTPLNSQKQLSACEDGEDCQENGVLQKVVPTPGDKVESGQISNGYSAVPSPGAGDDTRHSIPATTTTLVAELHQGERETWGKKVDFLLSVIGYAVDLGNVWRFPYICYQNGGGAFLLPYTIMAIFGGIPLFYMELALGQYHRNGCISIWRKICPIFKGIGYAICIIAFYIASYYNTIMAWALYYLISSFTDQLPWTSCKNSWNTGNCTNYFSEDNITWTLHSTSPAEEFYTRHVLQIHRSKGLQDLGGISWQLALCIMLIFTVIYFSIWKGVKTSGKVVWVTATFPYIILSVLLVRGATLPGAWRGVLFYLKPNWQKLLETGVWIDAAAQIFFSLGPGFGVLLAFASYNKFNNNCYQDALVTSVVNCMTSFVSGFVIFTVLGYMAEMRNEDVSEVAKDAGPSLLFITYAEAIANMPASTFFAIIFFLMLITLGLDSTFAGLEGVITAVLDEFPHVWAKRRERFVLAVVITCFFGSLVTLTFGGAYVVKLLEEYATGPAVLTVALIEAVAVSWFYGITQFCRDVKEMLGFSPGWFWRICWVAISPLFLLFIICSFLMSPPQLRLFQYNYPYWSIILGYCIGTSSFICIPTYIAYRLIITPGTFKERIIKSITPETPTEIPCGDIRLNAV
# Summary of the method: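 Filter-bound radioactivity from human platelet membranes incubated with [3H]paroxetine and test compound (buffer Tris-HCl 50 mM, 120 mM NaCl, 5 mM KCl) was counted.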
melting point,IC50 (hα2C receptor),IC50 (hα2A receptor),IC50 (5HT-Transporter),SMILES
286 °C,0.00251 µM,0.0126 µM,0.398 µM,C/C(=C\c1ccccc1)CN1CCC(Nc2nccn(Cc3ccc(CN)cc3)c2=O)CC1 [1-6]
126 °C,0.0126 µM,0.0316 µM,2 µM,C=CCn1ccnc(NC2CCN(C/C(C)=C/c3ccccc3)CC2)c1=O [7-11]
123 °C,0.0316 µM,0.126 µM,0.631 µM,C/C(=C\c1ccccc1)CN1CCC(Nc2nccn(Cc3ccc([N+](=O)[O-])cc3)c2=O)CC1 [5-25]
115 °C,0.002 µM,0.02 µM,0.501 µM,C/C(=C\c1ccccc1)CN1CCC(Nc2nccn(-c3ccc(CN(C)CCN(C)C)cc3)c2=O)CC1 [1-110]
254 °C,,0.0631 µM,6.31 µM,C/C(=C\c1ccccc1)CN1CCC(Nc2nccn(CCCN(C)C)c2=O)CC1 [1-14]
107 °C,0.0316 µM,0.0631 µM,2 µM,C/C(=C\c1ccccc1)CN1CCC(Nc2nccn(Cc3cc(C)on3)c2=O)CC1 [6-3]
103 °C,0.0316 µM,0.126 µM,0.501 µM,C/C(=C\c1ccccc1)CN1CCC(Nc2nccn(Cc3ccc(CNC(=O)c4ccco4)cc3)c2=O)CC1 [1-152]
294 °C,,,,C/C(=C\c1ccccc1)CN1CCC(Nc2nccn(CCN3CCCCC3)c2=O)CC1 (as salt: HCl) [2-4]
160 °C,0.00398 µM,0.0794 µM,1.26 µM,CC(=O)CNCCCn1ccnc(NC2CCN(C/C(C)=C/c3ccccc3)CC2)c1=O [1-37]
231 °C,,,,C/C(=C\c1ccccc1)CN1CCC(Nc2nccn(Cc3ccc(CN)cc3)c2=O)CC1 (as salt: HCl) [1-7]
170 °C,0.00631 µM,0.126 µM,5.01 µM,C/C(=C\c1ccccc1)CN1CCC(Nc2nccn(CC(=O)N3CCCCC3)c2=O)CC1 [2-5]
210 °C,0.00631 µM,0.0398 µM,1 µM,C/C(=C\c1ccccc1)CN1CCC(Nc2nccn(-c3ccsc3)c2=O)CC1 [6-4]
112 °C,0.0158 µM,0.158 µM,0.398 µM,C/C(=C\c1ccccc1)CN1CCC(Nc2nccn(Cc3ccccc3CS(=O)(=O)c3ccccc3)c2=O)CC1 [4-3]
99 °C,0.126 µM,0.251 µM,1.26 µM,C/C(=C\c1ccccc1)CN1CCC(Nc2nccn(Cc3ccc(OC(F)(F)F)cc3)c2=O)CC1 [3-15]
110 °C,0.0251 µM,0.158 µM,1 µM,CC(=O)c1ccc(S(=O)(=O)NCc2ccc(Cn3ccnc(NC4CCN(C/C(C)=C/c5ccccc5)CC4)c3=O)cc2)cc1 [1-165]
128 °C,0.0251 µM,0.0631 µM,0.794 µM,C/C(=C\c1ccccc1)CN1CCC(Nc2nccn(Cc3ccc(CNS(=O)(=O)c4ccccc4)cc3)c2=O)CC1 [1-159]
128 °C,0.0158 µM,0.1 µM,> 10 µM,C/C(=C\c1ccccc1)CN1CCC(Nc2nccn(CC(=O)N(C)C)c2=O)CC1 [1-16]
270 °C,,,,C/C(=C\c1ccccc1)CN1CCC(Nc2nccn(CCCNCc3ccccc3)c2=O)CC1 (as salt: HCl) [1-47]
67 °C,,,,C/C(=C\c1ccccc1)CN1CCC(Nc2nccn(CC#CCN3C(=O)c4ccccc4C3=O)c2=O)CC1 (as salt: trifluoroacetate) [2-54]
,0.00398 µM,0.0398 µM,0.2 µM,C/C(=C\c1ccccc1)CN1CCC(Nc2nccn(-c3ccc(C(=O)NCCN4CCCCC4)cc3)c2=O)CC1 [1-140]
,0.00398 µM,0.0501 µM,0.2 µM,C/C(=C\c1ccccc1)CN1CCC(Nc2nccn(-c3ccc(CN(C)Cc4ccccc4)cc3)c2=O)CC1 [1-54]
,0.0158 µM,0.126 µM,0.2 µM,C/C(=C\c1ccccc1)CN1CCC(Nc2nccn(-c3ccc(C(=O)N4CCN(CCc5ccccc5)CC4)cc3)c2=O)CC1 [2-33]
,0.00398 µM,0.0794 µM,1 µM,C/C(=C\c1ccccc1)CN1CCC(Nc2nccn(CC(=O)N(C)C3CCCCC3)c2=O)CC1 [1-20]
,0.0126 µM,0.1 µM,0.631 µM,COc1ccc(NC(=O)Cn2ccnc(NC3CCN(C/C(C)=C/c4ccccc4)CC3)c2=O)cc1 [1-63]

# Reference: patent US20090111801A1, “SUBSTITUTED PYRAZINONE DERIVATIVES FOR USE AS A MEDICINE” (Janssen Pharmaceutica N.V., priority 2006, published 2009)
